Reference: PubChem BioAssay (NCI)
Where “and” joins values, the source holds several entries; their conditions need not be identical. Identical values can stand only once.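 Grown in 96-well plates, cells were treated for 48 hours with each compound at five concentrations. Insufficient inhibition: endpoint recorded as highest concentration tested. GI50 marks 50% less growth. Definition used: TGI = concentration required for complete inhibition of growth.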

Assays:
Experiment in all cases: NCI anticancer screen, dose series, 48 h
RXF 393 renal = tested on: RXF 393 renal
SK-MEL-5 melanoma = tested on: SK-MEL-5 melanoma
KM12 colon = tested on: KM12 colon
MALME-3M melanoma = tested on: MALME-3M melanoma
ACHN renal = tested on: ACHN renal
HOP-92 NSCLC = tested on: HOP-92 NSCLC
EKVX NSCLC = tested on: EKVX NSCLC
SNB-19 CNS = tested on: SNB-19 CNS
SW-620 colon = tested on: SW-620 colon
COLO 205 colon = tested on: COLO 205 colon

SMILES | GI50 (RXF 393 renal) | TGI (RXF 393 renal) | GI50 (SK-MEL-5 melanoma) | TGI (SK-MEL-5 melanoma) | GI50 (KM12 colon) | TGI (KM12 colon) | GI50 (MALME-3M melanoma) | TGI (MALME-3M melanoma) | GI50 (ACHN renal) | TGI (ACHN renal) | GI50 (HOP-92 NSCLC) | TGI (HOP-92 NSCLC) | GI50 (EKVX NSCLC) | TGI (EKVX NSCLC) | GI50 (SNB-19 CNS) | TGI (SNB-19 CNS) | GI50 (SW-620 colon) | TGI (SW-620 colon) | GI50 (COLO 205 colon) | TGI (COLO 205 colon)
Cc1cc(C(=O)Nc2ccc3cc(CN4CCOCC4)ccc3n2)c(C)n1-c1ccccc1 | 2.18 µM | 7.01 µM | 0.202 µM | 0.799 µM | 1.68 µM | 4.66 µM | 1.89 µM | 8.66 µM | 2.6 µM | 42.3 µM | 2.15 µM | 40.3 µM | 1.38 µM | > 100 µM | 17.6 µM | > 100 µM | 4.18 µM | 30.5 µM | 1.83 µM | 5.07 µM
CCOC(=O)/C(C)=C(/O)C(=O)OCC |  | > 100 µM |  | > 100 µM |  | > 100 µM |  | > 100 µM |  | > 100 µM |  | > 100 µM |  | > 100 µM |  | > 100 µM |  | > 100 µM |  | > 100 µM
O=C(CCc1nc(=S)[nH][nH]1)Nc1ccccc1Cl |  | > 100 µM |  | > 100 µM |  | > 100 µM |  | > 100 µM |  | > 100 µM |  | > 100 µM |  | > 100 µM |  | > 100 µM |  | 35.6 µM |  | > 100 µM
CC(C)c1c(O)c(O)c2c(c1O)C(=O)C(O)=C1C(C)(C)CCC[C@@]12C |  | 9.24 µM |  | 10.8 µM |  | 12.2 µM |  | 15.9 µM |  | 11.3 µM |  | 5.63 µM |  | 11.5 µM |  | 22.1 µM |  | 11.8 µM |  | 3.6 µM
O=C(N/N=C/c1cc(Br)ccc1O)N/N=C/c1cc(Br)ccc1O |  | > 100 µM |  | > 100 µM |  | > 100 µM |  | > 100 µM |  | > 100 µM |  | 6.05 µM |  | > 100 µM |  | > 100 µM |  | > 100 µM |  | > 100 µM
Cc1ccc(NC(=O)c2cccc(C(C)(C)C#N)c2)cc1Nc1ccc2ncn(C)c(=O)c2c1 | 6.87 µM | > 73.4 µM | 1.26 µM | 20 µM | 1.66 µM | > 100 µM |  | 0.0434 µM | 1.73 µM | > 100 µM | 0.287 µM | 4.98 µM | 3.74 µM | > 100 µM | 5.48 µM | > 100 µM | 1.01 µM | > 100 µM | 0.0257 µM | 92.2 µM
CC1=[N+]([O-])c2ccccc2C(=O)C1=O |  | > 100 µM |  | > 100 µM |  | > 100 µM |  | > 100 µM |  | > 100 µM |  | > 100 µM |  | > 100 µM |  | > 100 µM |  | > 100 µM |  | > 100 µM
CC(C)c1ccc(-c2cc(-c3cn[nH]c3-c3ccccn3)ccn2)cc1 | > 18.5 µM | > 25 µM | 6.65 µM | > 16.6 µM | 9.83 µM | > 25 µM | 8.83 µM | > 25 µM | 18.5 µM | > 25 µM | 1.99 µM | > 25 µM | 11.3 µM | > 25 µM | 20.5 µM | > 25 µM | 18 µM | > 25 µM | 13.3 µM | > 25 µM
CC/C=C\C[C@H](O)C/C=C1/C(=O)C=C[C@@H]1C/C=C\CCCC(=O)OC | 1.91 µM | 3.58 µM | 1.54 µM | 2.91 µM | 1.38 µM | 5.02 µM | 2.14 µM | 6.24 µM | 2 µM | 4.27 µM | 3.22 µM | 8.67 µM | 3.11 µM | 12.4 µM | 2.88 µM | 14 µM | 0.784 µM | 11.3 µM | 1.84 µM | 4.02 µM
CN1CCN(CCCNc2nc3ccc(Oc4ccc(NC(=O)Nc5cc(C(F)(F)F)ccc5F)cc4)cc3[nH]2)CC1 | 4.07 µM | 9.17 µM | 3.66 µM | 7.01 µM | 3.44 µM | 6.74 µM | 4.69 µM | 9.67 µM | 17.5 µM | > 25 µM | 2.91 µM | 12.1 µM | 6.69 µM | > 25 µM | 3.99 µM | 7.42 µM | 4.35 µM | 7.79 µM | 4.5 µM | 7.97 µM
CCCCCCCCCCCCCCCC(=O)OCC(C[As](=O)(O)O)OC(=O)CCCCCCCCCCCCCCC (centres undefined) |  | > 100 µM |  | > 100 µM |  | > 100 µM |  | > 100 µM |  | > 100 µM |  | > 100 µM |  | > 100 µM |  | > 100 µM |  | > 100 µM |  | > 100 µM
O=C1C2C3C=C4c5ccccc5N(c5ccccc5)C4(C2C(=O)N1c1ccc([N+](=O)[O-])cc1)[C@H]1C(=O)N(c2ccc([N+](=O)[O-])cc2)C(=O)[C@@H]31 (some centres undefined) |  | > 100 µM |  | > 100 µM |  | > 100 µM |  | > 100 µM |  | > 100 µM |  | > 100 µM |  | > 100 µM |  | > 100 µM |  | > 100 µM |  | > 100 µM
O=C1/C(=C(/c2ccccc2)N2CCOCC2)Cc2ccccc21 | 0.883 µM | 2.19 µM | 2.25 µM | 6.73 µM | 2.22 µM | 5.49 µM | 1.28 µM | 3.08 µM | 1.64 µM | 3.69 µM | 1.24 µM | 3.01 µM | 3.21 µM | 13.5 µM | 10.6 µM | 23.8 µM | 1.2 µM | 2.65 µM | 1.34 µM | 2.94 µM
CC1(C)C(=O)/C(=C\c2cccnc2)C[C@]2(C)[C@H]3CC[C@@H]4[C@H]5[C@H](C(=O)/C=C/c6cccnc6)CC[C@]5(C(=O)O)CC[C@@]4(C)[C@]3(C)CC[C@@H]12 | 1.67 µM | 3.1 µM | 1.8 µM | 3.22 µM | 1.73 µM | 3.64 µM | 2 µM | 4.46 µM | 1.69 µM | 3.06 µM | 2.31 µM | 7.64 µM | 2.11 µM | 4.92 µM | 2.34 µM | 5.69 µM | 2.79 µM | 10.3 µM | 2.33 µM | 5.17 µM
CC1=CC(=O)C=CC1=O | 16.8 µM and 12.1 µM | 31.5 µM and 27.4 µM | 29.3 µM and 13.4 µM | 26.3 µM | 14.1 µM and 16.5 µM | 27.7 µM and 32.1 µM | 13.1 µM and 13.7 µM | 29.7 µM and 27.8 µM | 15.9 µM and 2.94 µM | 29.4 µM and 10.1 µM | 16.7 µM | 33.4 µM | 17 µM | 39.6 µM | 36.1 µM | 89.4 µM | 5.31 µM | 20.8 µM | 13.4 µM and 12.1 µM | 27.3 µM and 25 µM
CCc1nc(N)nc(N)c1-c1ccc(NC)c([N+](=O)[O-])c1 |  | > 93.3 µM |  | 29.1 µM |  | > 100 µM |  | > 100 µM |  | > 100 µM |  | > 86.8 µM |  | > 100 µM |  | > 80.4 µM |  | > 100 µM |  | 34.4 µM
